Read-outs that look alike come from different tables or passages of the source.
Assays:
[1] = test system: Saccharomyces cerevisiae; experiment: MIC/MFC broth microdilution (CLSI); format: cell-based; conditions: Saccharomyces cerevisiae S288c
Protocol: (§1) Antifungal susceptibility was determined by broth microdilution according to the CLSI guidelines described in M27-Ed4 ([16]). […] MFC was determined by back-plating drug-treated cultures from MIC broths onto SDA plates. The MFC was defined as the lowest concentration from which no colonies could be cultured.

[2] = test system: Candida albicans; experiment: MIC/MFC broth microdilution (CLSI); format: cell-based; conditions: Candida albicans SC5314
Protocol: as §1

[3] = test system: Cryptococcus deuterogattii; experiment: checkerboard drug interaction (FICI, MICc);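 for all read-outs here: simplified diagonal checkerboard screen pairing antifungal drugs with FPPS inhibitors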; format: cell-based; conditions: C. deuterogattii; for INH FD (MIC-MICc fold decrease): fold decrease of inhibitor MIC
Protocol: (§2) Drug interactions between antifungals and FPPS inhibitors were investigated using a simplified checkerboard diagonal screening method ([45]). […] FICIs were determined according to the Loewe additivity model ([17]).

[4] = test system: Cryptococcus neoformans; experiment: checkerboard drug interaction (FICI, MICc);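 for all read-outs here: antifungal plus FPPS inhibitor pairs tested against Cryptococcus neoformans by simplified diagonal checkerboard screening, FICI computed under the Loewe additivity model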; format: cell-based; conditions: C. neoformans; for INH FD (MIC-MICc fold decrease): fold decrease of inhibitor MIC
Protocol: as §2

[5] = test system: Saccharomyces cerevisiae; experiment: checkerboard drug interaction (FICI, MICc); format: cell-based; parameters: INH MICc / INH MICc (ITR:INH) / INH MICc (KET:INH) / INH MICc (FLC:INH): unit not given beside the values;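 note: simplified diagonal checkerboard screen pairing antifungals with FPPS inhibitors, FICI calculated under the Loewe additivity model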
[6] = test system: Candida glabrata; experiment: checkerboard drug interaction (FICI, MICc);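 for all read-outs here: simplified diagonal checkerboard screen pairing antifungals with FPPS inhibitors, FICI calculated under the Loewe additivity model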; format: cell-based; conditions: C. glabrata; for INH FD (MIC-MICc fold decrease): fold decrease of inhibitor MIC
Protocol: as §2

[7] = test system: Candida albicans; experiment: checkerboard drug interaction (FICI, MICc);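 for all read-outs here: antifungal plus FPPS inhibitor combinations on Candida albicans tested by a simplified diagonal checkerboard screen, with FICI calculated under the Loewe additivity model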; format: cell-based; conditions: C. albicans; for INH FD (MIC-MICc fold decrease): fold decrease of inhibitor MIC
Protocol: as §2

[8] = test system: Aspergillus flavus; experiment: checkerboard drug interaction (FICI, MICc);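 note: simplified diagonal checkerboard screen pairing azole antifungals with FPPS inhibitors, FICI calculated under the Loewe additivity model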; format: cell-based; parameters: INH MICc (KET:INH) / INH MICc (FLC:INH): unit not given beside the values; conditions: A. flavus
[9] = test system: Aspergillus fumigatus; experiment: checkerboard drug interaction (FICI, MICc); format: cell-based;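 note: simplified diagonal checkerboard screen pairing antifungals with FPPS inhibitors against Aspergillus fumigatus, with FICI calculated under the Loewe additivity model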
Protocol: as §2

[10] = test system: Trichophyton rubrum; experiment: checkerboard drug interaction (FICI, MICc);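 note: simplified diagonal checkerboard screen pairing azole antifungals with FPPS inhibitors, FICI calculated under the Loewe additivity model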; format: cell-based; conditions: T. rubrum
Protocol: as §2

[11] = test system: HEK-293T cells; experiment: MTT reduction cytotoxicity assay; format: cell-based; conditions: Homo sapiens, HEK-293T, 72 h, MTT, 72 h
[12] = test system: eight fungal species; experiment: MIC/MFC summary across the eight fungal species of Table 1; format: cell-based
Protocol: The antifungal activity of these compounds was evaluated according to CLSI guidelines ([16]).

[13] = test system: eight fungal species; experiment: checkerboard interaction with azoles, summary across the eight species; format: cell-based; conditions: geometric mean MIC in combination with azoles
From the text: Synergy between lipophilic FPPS inhibitors and azole antifungals was investigated by determining the fractional inhibitory concentration index (FICI) (Fig. 2; Table S1 Fig. S1) ([17]). […]. Derivatives PLA9 and 11, and PDA9, 11, and 12 antagonized azoles in C. albicans, C. neoformans, and C. deuterogattii, yet were largely synergistic in C. glabrata and S. cerevisiae. […].

[14] = test system: Cryptococcus deuterogattii; experiment: MIC/MFC broth microdilution (CLSI); conditions: Cryptococcus deuterogattii;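 note: broth microdilution per CLSI M27-Ed4. MFC is the lowest concentration yielding no colonies when MIC broths are subcultured onto SDA plates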
Protocol: as §1

[15] = test system: Cryptococcus neoformans; experiment: MIC/MFC broth microdilution (CLSI); conditions: Cryptococcus neoformans;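 note: susceptibility testing followed the CLSI M27-Ed4 broth microdilution document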
Protocol: as §1

[16] = test system: Candida glabrata; experiment: MIC/MFC broth microdilution (CLSI); conditions: Nakaseomyces glabratus, CBS138;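 note: broth microdilution following CLSI M27-Ed4, MFC taken as the lowest drug level yielding no growth once MIC wells were subcultured on SDA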
Protocol: as §1

[17] = test system: Aspergillus flavus; experiment: MIC/MFC broth microdilution (CLSI); conditions: ATCC204304
Protocol: as §1

[18] = test system: Aspergillus fumigatus; experiment: MIC/MFC broth microdilution (CLSI); conditions: ATCC204305
Protocol: as §1

[19] = test system: Trichophyton rubrum; experiment: MIC/MFC broth microdilution (CLSI); conditions: Trichophyton rubrum
Protocol: as §1

[20] = FLC:INH combination, MIC of the inhibitor in combination with FLC
[21] = FLC:INH combination, fold decrease of FLC MIC
[22] = ITR:INH combination, MIC of the inhibitor in combination with ITR
[23] = ITR:INH combination, fold decrease of ITR MIC
[24] = KET:INH combination, MIC of the inhibitor in combination with KET
[25] = KET:INH combination, fold decrease of KET MIC
[26] = Fractional Inhibitory Concentration Index, fluconazole + inhibitor
[27] = Fractional Inhibitory Concentration Index, itraconazole + inhibitor
[28] = Fractional Inhibitory Concentration Index, ketoconazole + inhibitor
[29] = MIC of the inhibitor in combination with fluconazole
[30] = MIC of the inhibitor in combination with itraconazole
[31] = MIC of the inhibitor in combination with ketoconazole
[32] = MIC-MICc fold decrease of fluconazole, negative = increase
[33] = MIC-MICc fold decrease of itraconazole, negative = increase
[34] = MIC-MICc fold decrease of ketoconazole, negative = increase
[35] = MIC-MICc fold decrease of the inhibitor, with fluconazole
[36] = MIC-MICc fold decrease of the inhibitor, with itraconazole
[37] = MIC-MICc fold decrease of the inhibitor, with ketoconazole

CCCCCCCCCCCCN1CCC[C@H]1C(=O)N[C@H](CC(=O)O)C(=O)O [PDA12]
< -4: ITR FD (MIC-MICc fold decrease) [7, 23]
2.06: FICI ([7]; FLC:INH combination)
256: INH MICc (FLC:INH) [8, 29] | INH MICc (FLC:INH) [9, 29] | INH MICc (FLC:INH) [10, 29] | INH MICc (ITR:INH) [10, 30] | INH MICc (KET:INH) [10, 31]
0.38: FICI (FLC:INH) [5, 26]
235 µg/mL: MIC ([12]; geometric mean across eight species, read-out: GM fungal MIC) | MIC ([12]; read-out: Geometric mean MIC)
16: INH MICc (KET:INH) [5, 31] | INH FD (KET:INH) [5, 37] | INH MICc [7, 20] | INH FD (MIC-MICc fold decrease) ([7]; FLC:INH combination)
2: INH FD (MIC-MICc fold decrease) ([3]; FLC:INH combination) | INH FD (MIC-MICc fold decrease) ([3]; ITR:INH combination) | INH FD (MIC-MICc fold decrease) ([4]; FLC:INH combination) | INH FD (MIC-MICc fold decrease) ([4]; KET:INH combination) | ITR FD (ITR:INH) [5, 33] | FLC FD (MIC-MICc fold decrease) [6, 21] | INH MICc [6, 22] | INH MICc [6, 24] | FICI (FLC:INH) [8, 26] | ITR FD (ITR:INH) [8, 33] | KET FD (KET:INH) [8, 34] | INH FD (ITR:INH) [8, 36] | INH FD (KET:INH) [8, 37] | FICI (FLC:INH) [9, 26] | INH MICc (ITR:INH) [9, 30] | ITR FD (ITR:INH) [9, 33] | INH FD (KET:INH) [9, 37]
64: INH MICc [3, 24] | INH MICc [4, 22] | INH MICc (FLC:INH) [5, 29] | INH MICc [7, 22]
-2: FLC FD (MIC-MICc fold decrease) [3, 21] | ITR FD (MIC-MICc fold decrease) [4, 23] | FLC FD (MIC-MICc fold decrease) [7, 21] | FLC FD (FLC:INH) [10, 32] | KET FD (KET:INH) [10, 34] | INH FD (FLC:INH) [10, 35] | INH FD (ITR:INH) [10, 36] | INH FD (KET:INH) [10, 37]
0.31: FICI (KET:INH) [5, 28] | FICI ([6]; ITR:INH combination) | FICI ([6]; KET:INH combination)
1: FICI (ITR:INH) [8, 27] | FICI (KET:INH) [8, 28] | FLC FD (FLC:INH) [8, 32] | INH FD (FLC:INH) [8, 35] | FLC FD (FLC:INH) [9, 32] | KET FD (KET:INH) [9, 34] | INH FD (FLC:INH) [9, 35] | ITR FD (ITR:INH) [10, 33]
> 128 µg/mL: MFC [1] | MIC [1] | MFC [2] | MIC [2] | MFC ([12]; across eight species, read-out: Geometric mean MFC) | MFC [14] | MIC [14] | MFC [15] | MIC [15] | MFC [16] | MIC [16] | MFC [17] | MIC [17] | MFC [18] | MIC [18] | MFC [19]
8: FLC FD (FLC:INH) [5, 32] | INH FD (ITR:INH) [5, 36] | INH MICc [6, 20] | INH FD (MIC-MICc fold decrease) ([7]; KET:INH combination)
0.51: FICI (ITR:INH) [9, 27]
4: KET FD (MIC-MICc fold decrease) [3, 25] | INH FD (MIC-MICc fold decrease) ([3]; KET:INH combination) | INH FD (MIC-MICc fold decrease) ([4]; ITR:INH combination) | KET FD (KET:INH) [5, 34] | INH FD (FLC:INH) [5, 35] | ITR FD (MIC-MICc fold decrease) [6, 23] | KET FD (MIC-MICc fold decrease) [6, 25] | INH FD (MIC-MICc fold decrease) ([7]; ITR:INH combination)
0.5: FICI ([3]; KET:INH combination)
-4: ITR FD (MIC-MICc fold decrease) [3, 23] | FLC FD (MIC-MICc fold decrease) [4, 21] | KET FD (MIC-MICc fold decrease) [4, 25] | KET FD (MIC-MICc fold decrease) [7, 25]
3: FICI (ITR:INH) [10, 27]
1.5: FICI (KET:INH) [9, 28]
128: INH MICc [3, 20] | INH MICc [3, 22] | INH MICc [4, 20] | INH MICc [4, 24] | INH FD (MIC-MICc fold decrease) ([6]; ITR:INH combination) | INH FD (MIC-MICc fold decrease) ([6]; KET:INH combination) | INH MICc (ITR:INH) [8, 30] | INH MICc (KET:INH) [8, 31] | INH MICc (KET:INH) [9, 31] | INH FD (ITR:INH) [9, 36]
≥4: FICI ([3]; ITR:INH combination) | FICI ([4]; FLC:INH combination) | FICI ([4]; KET:INH combination) | FICI ([7]; ITR:INH combination) | FICI ([7]; KET:INH combination) | FICI (FLC:INH) [10, 26] | FICI (KET:INH) [10, 28]
32: INH MICc (ITR:INH) [5, 30] | INH FD (MIC-MICc fold decrease) ([6]; FLC:INH combination) | INH MICc [7, 24]
52.3: GM fungal MICc [13]
2.25: FICI ([4]; ITR:INH combination)
0.75: FICI ([6]; FLC:INH combination)
0.63: FICI (ITR:INH) [5, 27]
2.5: FICI ([3]; FLC:INH combination)
128 µg/mL: MIC [19]
168 µg/mL: IC50 ([11]; HEK-293T cells, read-out: IC50) | IC50 ([11]; read-out: HEK IC50)
